Results taken from ChEMBL document CHEMBL5244277, “A review upon medicinal perspective and designing rationale of DPP-4 inhibitors” (Bioorg Med Chem, 2021).

How the values were obtained:
Mus musculus [1] = experiment: Antidiabetic activity in C57BL/6J mouse assessed as decrease in AUC of glucose at 3 mg/kg, po; assay type: functional; parameters: scale not given: the % may be the effect or the level left
Dipeptidyl peptidase 4 [2] = molecular target: T1, Dipeptidyl peptidase 4 (Homo sapiens, UniProt P27487); assay type: cell-based, Caco-2
Target sequence in this assay (P27487 whole entry): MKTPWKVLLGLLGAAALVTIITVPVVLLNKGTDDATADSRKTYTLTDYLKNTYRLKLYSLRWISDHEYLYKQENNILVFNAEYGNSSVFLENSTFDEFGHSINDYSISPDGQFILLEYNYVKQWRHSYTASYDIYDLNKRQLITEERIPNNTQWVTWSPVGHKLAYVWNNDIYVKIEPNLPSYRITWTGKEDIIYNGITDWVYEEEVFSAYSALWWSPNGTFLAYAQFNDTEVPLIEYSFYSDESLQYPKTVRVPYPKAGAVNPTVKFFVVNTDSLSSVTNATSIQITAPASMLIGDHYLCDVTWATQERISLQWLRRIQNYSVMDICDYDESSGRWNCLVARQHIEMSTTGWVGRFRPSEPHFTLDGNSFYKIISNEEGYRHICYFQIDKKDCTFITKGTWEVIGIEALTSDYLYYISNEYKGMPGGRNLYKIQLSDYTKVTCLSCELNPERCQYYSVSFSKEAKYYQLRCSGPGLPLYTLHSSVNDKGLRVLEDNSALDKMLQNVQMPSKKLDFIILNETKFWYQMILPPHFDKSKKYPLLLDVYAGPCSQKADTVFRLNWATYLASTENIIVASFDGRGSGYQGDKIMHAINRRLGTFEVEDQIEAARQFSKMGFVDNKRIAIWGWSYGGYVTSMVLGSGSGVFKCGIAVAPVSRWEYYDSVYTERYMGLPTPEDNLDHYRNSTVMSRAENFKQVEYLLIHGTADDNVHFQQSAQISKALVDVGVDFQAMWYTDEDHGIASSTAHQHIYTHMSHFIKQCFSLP

Rattus norvegicus = experiment: Antihyperglycemic activity in STZ-induced diabetic rat model assessed as reduction in blood glucose level at 100 mg/kg, po measured upto 24 hrs; assay type: functional; parameters: scale not given: the % may be the effect or the level left
Mus musculus [3] = experiment: Hypoglycemic activity in ICR mouse assessed as reduction in blood glucose level at 3 mg/kg; assay type: ADME, organism-based; parameters: scale not given: the % may be the effect or the level left; settings: in vivo
[4] = AUC in C57BL/6J mouse at 20 mg/kg, po; assay type: ADME, organism-based; parameters: dose 20 mg/kg, route po; settings: in vivo
Mus musculus [5] = experiment: Hypoglycemic activity in ICR mouse assessed as reduction in blood glucose level at 10 mg/kg; assay type: ADME, organism-based; parameters: scale not given: the % may be the effect or the level left; settings: in vivo
Mus musculus [6] = experiment: Antidiabetic activity in ICR mouse assessed as decrease in AUC of glucose at 10 mg/kg, po; assay type: functional; parameters: scale not given: the % may be the effect or the level left
Mus musculus [7] = experiment: Hypoglycemic activity in ICR mouse assessed as reduction in blood glucose level at 1 mg/kg; assay type: ADME, organism-based; parameters: scale not given: the % may be the effect or the level left; settings: in vivo
[8] = Blood glucose AUC in ICR mouse at 15 mg/kg; settings: in vivo
Mus musculus [9] = experiment: Hypoglycemic activity in KKAy mouse assessed as reduction in blood glucose level at 10 mg/kg; assay type: ADME, organism-based; parameters: scale not given: the % may be the effect or the level left; settings: in vivo
Homo sapiens = species: Homo sapiens; experiment: Selectivity index, ratio of IC50 for DPP-4 (unknown origin) to IC50 for DPP-8 (unknown origin)
[10] = Half life in mouse; assay type: ADME, organism-based; settings: in vivo
Mus musculus [11] = experiment: Hypoglycemic activity in C57BL/6J mouse assessed as reduction in blood glucose level at 10 mg/kg, po measured at 20 to 80 mins by OGTT analysis; assay type: functional; parameters: scale not given: the % may be the effect or the level left; settings: time 20-80 min
Dipeptidyl peptidase 4 [12] = molecular target: T1, Dipeptidyl peptidase 4; experiment: Inhibition of human recombinant DPP-4 at 100 uM using Gly-Pro-Aminomethylcoumarin as substrate by Spectra max fluorometer analysis relative to control
Target sequence in this assay (P27487 whole entry, looked up): as the sequence (P27487 whole entry) above

Dipeptidyl peptidase 4 [13] = molecular target: T1, Dipeptidyl peptidase 4
Target sequence in this assay (P27487 whole entry): as above

Mus musculus [14] = experiment: Antidiabetic activity in ICR mouse assessed as decrease in AUC of glucose at 3 mg/kg, po; assay type: functional; parameters: scale not given: the % may be the effect or the level left
[15] = Bioavailability in rat; assay type: ADME, organism-based; settings: in vivo
Dipeptidyl peptidase 4 [16] = molecular target: T1, Dipeptidyl peptidase 4; remark: listed apart in the source
Target sequence in this assay (P27487 whole entry, looked up): as the sequence (P27487 whole entry) above

Dipeptidyl peptidase 4 [17] = molecular target: T1, Dipeptidyl peptidase 4; experiment: Inhibition of DPP-4 (unknown origin) at 100 uM relative to control
Target sequence in this assay (P27487 whole entry, looked up): as the sequence (P27487 whole entry) above

Dipeptidyl peptidase 4 [18] = molecular target: T1, Dipeptidyl peptidase 4; remark: listed apart in the source
Target sequence in this assay (P27487 whole entry): as above

Dipeptidyl peptidase 4 [19] = molecular target: T1, Dipeptidyl peptidase 4; experiment: Inhibition of DPP4 (unknown origin) using Gly-Pro-AMC as substrate incubated for 30 mins by spectroscopic analysis
Target sequence in this assay (P27487 whole entry): as above

[20] = molecular target: T2, Voltage-gated inwardly rectifying potassium channel KCNH2 (Homo sapiens, UniProt Q12809); experiment: Inhibition of hERG channel by patch clamp assay; assay type: toxicity
T2 sequence (Q12809 whole entry): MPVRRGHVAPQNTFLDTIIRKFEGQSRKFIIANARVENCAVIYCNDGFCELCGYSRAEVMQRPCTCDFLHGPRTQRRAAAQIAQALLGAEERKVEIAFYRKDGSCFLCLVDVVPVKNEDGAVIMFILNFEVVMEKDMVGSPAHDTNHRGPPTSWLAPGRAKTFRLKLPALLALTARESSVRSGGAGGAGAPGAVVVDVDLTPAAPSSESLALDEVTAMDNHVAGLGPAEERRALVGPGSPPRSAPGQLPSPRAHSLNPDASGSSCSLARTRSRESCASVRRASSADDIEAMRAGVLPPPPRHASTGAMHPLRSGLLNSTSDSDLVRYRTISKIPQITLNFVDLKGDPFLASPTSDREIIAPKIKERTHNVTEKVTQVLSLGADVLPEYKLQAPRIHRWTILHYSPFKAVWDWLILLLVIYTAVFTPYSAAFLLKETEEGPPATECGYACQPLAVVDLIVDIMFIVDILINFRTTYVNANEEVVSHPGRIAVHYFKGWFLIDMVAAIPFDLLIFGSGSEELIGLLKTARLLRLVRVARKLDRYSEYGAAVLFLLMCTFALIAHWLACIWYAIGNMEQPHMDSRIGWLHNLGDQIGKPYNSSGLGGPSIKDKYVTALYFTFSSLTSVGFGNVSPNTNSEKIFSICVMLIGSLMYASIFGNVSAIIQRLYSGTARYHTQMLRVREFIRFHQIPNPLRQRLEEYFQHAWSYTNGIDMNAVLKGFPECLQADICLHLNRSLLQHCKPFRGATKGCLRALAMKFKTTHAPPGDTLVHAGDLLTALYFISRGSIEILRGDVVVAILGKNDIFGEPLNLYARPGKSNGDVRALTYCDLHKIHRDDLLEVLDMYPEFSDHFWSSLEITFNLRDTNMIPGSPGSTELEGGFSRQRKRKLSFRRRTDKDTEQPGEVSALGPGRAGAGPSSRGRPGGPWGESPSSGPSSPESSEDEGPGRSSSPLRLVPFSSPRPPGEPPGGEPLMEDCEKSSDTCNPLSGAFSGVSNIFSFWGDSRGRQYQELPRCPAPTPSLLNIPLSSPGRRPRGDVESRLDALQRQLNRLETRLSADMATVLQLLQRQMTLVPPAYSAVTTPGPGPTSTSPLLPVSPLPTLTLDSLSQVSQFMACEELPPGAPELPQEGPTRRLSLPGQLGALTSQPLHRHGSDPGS

[21] = Half life in ICR mouse at 15 mg/kg; assay type: ADME, organism-based; settings: in vivo
[22] = molecular target: T2, Voltage-gated inwardly rectifying potassium channel KCNH2; experiment: Inhibition of hERG by thallium flux assay; assay type: toxicity
[23] = Oral bioavailability in ICR mouse at 15 mg/kg; assay type: ADME, organism-based; settings: in vivo
Dipeptidyl peptidase 8 = Dipeptidyl peptidase 8 (Homo sapiens, UniProt Q6V1X1); experiment: Inhibition of DPP-8 (unknown origin)
Chain of Dipeptidyl peptidase 8 (Q6V1X1 whole entry): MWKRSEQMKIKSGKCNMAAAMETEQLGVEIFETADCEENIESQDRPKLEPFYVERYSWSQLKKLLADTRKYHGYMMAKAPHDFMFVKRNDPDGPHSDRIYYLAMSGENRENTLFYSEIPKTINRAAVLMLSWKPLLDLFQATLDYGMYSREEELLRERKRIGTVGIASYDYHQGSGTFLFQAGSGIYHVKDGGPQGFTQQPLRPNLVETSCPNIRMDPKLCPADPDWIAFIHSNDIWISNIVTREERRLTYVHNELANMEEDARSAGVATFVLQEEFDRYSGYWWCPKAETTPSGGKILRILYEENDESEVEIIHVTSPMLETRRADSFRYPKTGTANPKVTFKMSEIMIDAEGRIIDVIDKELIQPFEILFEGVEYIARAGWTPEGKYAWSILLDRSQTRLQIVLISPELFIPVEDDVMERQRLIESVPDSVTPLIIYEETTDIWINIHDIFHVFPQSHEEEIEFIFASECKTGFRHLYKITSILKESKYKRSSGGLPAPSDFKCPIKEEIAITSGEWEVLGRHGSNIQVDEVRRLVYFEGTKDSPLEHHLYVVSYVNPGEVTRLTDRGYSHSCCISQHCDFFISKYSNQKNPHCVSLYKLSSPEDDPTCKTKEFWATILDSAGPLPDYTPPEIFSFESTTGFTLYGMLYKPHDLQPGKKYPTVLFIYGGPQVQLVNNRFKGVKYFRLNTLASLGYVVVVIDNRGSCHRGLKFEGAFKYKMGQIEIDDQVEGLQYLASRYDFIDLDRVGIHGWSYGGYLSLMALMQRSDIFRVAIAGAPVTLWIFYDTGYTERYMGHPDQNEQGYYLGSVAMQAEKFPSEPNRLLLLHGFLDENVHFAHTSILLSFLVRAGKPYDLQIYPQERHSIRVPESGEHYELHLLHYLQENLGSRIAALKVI

Dipeptidyl peptidase 9 = Dipeptidyl peptidase 9 (Homo sapiens, UniProt Q86TI2); experiment: Inhibition of DPP-9 (unknown origin)
Chain of Dipeptidyl peptidase 9 (Q86TI2 whole entry): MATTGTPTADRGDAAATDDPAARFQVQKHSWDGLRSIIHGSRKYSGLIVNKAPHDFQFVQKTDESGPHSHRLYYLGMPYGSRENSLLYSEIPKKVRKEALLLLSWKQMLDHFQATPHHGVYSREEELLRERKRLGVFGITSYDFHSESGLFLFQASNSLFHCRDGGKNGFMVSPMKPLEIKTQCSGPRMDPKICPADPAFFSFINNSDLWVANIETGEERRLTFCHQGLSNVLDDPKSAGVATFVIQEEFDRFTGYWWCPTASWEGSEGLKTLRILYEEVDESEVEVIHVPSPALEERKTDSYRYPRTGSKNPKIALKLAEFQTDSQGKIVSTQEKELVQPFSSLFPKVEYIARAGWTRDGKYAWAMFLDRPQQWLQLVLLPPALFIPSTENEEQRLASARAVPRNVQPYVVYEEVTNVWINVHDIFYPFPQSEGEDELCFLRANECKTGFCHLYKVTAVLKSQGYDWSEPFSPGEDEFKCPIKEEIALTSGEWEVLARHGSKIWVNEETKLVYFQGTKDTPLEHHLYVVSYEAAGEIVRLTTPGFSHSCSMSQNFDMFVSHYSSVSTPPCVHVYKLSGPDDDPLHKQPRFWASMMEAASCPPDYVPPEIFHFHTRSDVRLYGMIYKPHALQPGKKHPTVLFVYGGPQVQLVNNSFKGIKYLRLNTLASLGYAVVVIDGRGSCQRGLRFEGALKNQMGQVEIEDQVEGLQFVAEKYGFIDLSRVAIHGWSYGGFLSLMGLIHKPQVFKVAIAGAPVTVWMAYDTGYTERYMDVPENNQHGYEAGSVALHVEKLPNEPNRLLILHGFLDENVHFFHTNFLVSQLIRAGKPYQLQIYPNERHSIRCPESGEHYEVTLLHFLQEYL

## NCC1CN(CCCc2ccc3c(c2)OCO3)C(=O)CC1c1cc(F)ccc1F (centres undefined)
Mus musculus [1]
  Activity: 38.9%

## CCN(CC)S(=O)(=O)c1cc(C(=O)NC[C@@H]2CCCN2C(=O)C[C@H](N)[C@H]2CCc3cc(F)c(F)cc32)c(F)cc1F
Dipeptidyl peptidase 4 [2]
  IC50: 0.87 nM

## O=C(CN1CCN(c2ccnc3cc(Cl)ccc23)CC1)N1CCOCC1
Rattus norvegicus
  Activity: 17.4%

## N#Cc1ccc(NCCNCC(=O)N2CCC[C@H]2C#N)nc1
Mus musculus [3]
  Activity: 33.48%
[4]
  AUC: 21500 ng·h/mL
Mus musculus [5]
  Activity: 33.51%

## Cn1c(=O)cc(N2CCC[C@@H](N)C2)n(Cc2ccccc2C#N)c1=O [ALOGLIPTIN]
Mus musculus [6]
  Activity: 42.5%

## N#C[C@@H]1CCCN1C(=O)CNC12CC3CC(CC(O)(C3)C1)C2 [VILDAGLIPTIN]
Mus musculus [7]
  Activity: 24.1%
[8]
  glucose AUC: 904 mmol/L/min
Mus musculus [9]
  Activity: 30%

## N#C[C@@H]1CCCN1C(=O)[C@@H](N)CCC(=O)N1CCn2nc(C(F)(F)F)nc2C1.O=C(O)C(F)(F)F
Homo sapiens
  Ratio IC50: > 1000
[10]
  half-life: < 1440 min

## N#Cc1ccc(C(=O)NCCCC(=O)N2CCC[C@H]2C#N)cc1
[4]
  AUC: 54000 ng·h/mL

## N[C@@H](CC(=O)N1CCC[C@H]1CNC(=O)c1cc(S(N)(=O)=O)c(F)cc1F)[C@H]1CCc2cc(F)c(F)cc21
Mus musculus [11]
  Activity: 12%
Dipeptidyl peptidase 4 [2]
  IC50: 0.87 nM

## O=C(CNc1cc2ccc3ccccc3c2oc1=O)Nc1ccc(F)cc1
Dipeptidyl peptidase 4 [12]
  inhibition: 26.7%

## O=C(CN1CCN(c2ccccn2)CC1)N1CCSC1
Rattus norvegicus
  Activity: 18.4%

## N#C[C@@H]1CCCN1C(=O)[C@@H](N)CCC(=O)N1CCn2c(nnc2C(F)(F)F)C1.O=C(O)C(F)(F)F
Homo sapiens
  Ratio IC50: > 1000
[10]
  half-life: < 1440 min

## CC#CCn1c(N2CCC[C@@H](N)C2)cc(=O)n(Cc2cn(CCC(=O)O)nn2)c1=O
Dipeptidyl peptidase 4 [13]
  IC50: 12.4 nM
Mus musculus [14]
  Activity: 21.2%

## CC#CCn1c(N2CCC[C@@H](N)C2)cc(=O)n(Cc2cn(-c3ccccc3)nn2)c1=O
Dipeptidyl peptidase 4 [13]
  IC50: 185 nM

## Cl.N[C@@H](CC(=O)N1CCn2c(nnc2C(F)(F)F)[C@H]1c1ccc(F)cc1)Cc1cc(F)c(F)cc1F
[15]
  bioavailability: 76%
Dipeptidyl peptidase 4 [16]
  IC5: 0.00018 µM

## N[C@@H](CC(=O)N1CCC[C@H]1CNC(=O)c1cc(S(=O)(=O)N2CCC2)c(F)cc1F)[C@H]1CCc2cc(F)c(F)cc21
Dipeptidyl peptidase 4 [2]
  IC50: 0.87 nM

## COC(=O)C1=C(C)N=C2CC(C)C3(Oc4c(Cl)c(OC)cc(OC)c4C3=O)C(O)=C2C1c1cc2cccc3c2n(c1=O)CCC3 (centres undefined)
Dipeptidyl peptidase 4 [17]
  inhibition: > 50%

## Cc1c(-c2cc(S(=O)(=O)c3ccccc3)n[nH]2)c(=O)n(C)n1C
Dipeptidyl peptidase 4 [18]
  IC50: < 15 nM

## CN1CCN(S(=O)(=O)c2cccc(C(=O)NC[C@@H]3CCCN3C(=O)C[C@H](N)[C@H]3CCc4cc(F)c(F)cc43)c2)CC1
Mus musculus [11]
  Activity: 34%
Dipeptidyl peptidase 4 [2]
  IC50: 1.1 nM

## CC#CCn1c(N2CCC[C@@H](N)C2)cc(=O)n(Cc2cn(CCC(=O)OC)nn2)c1=O
Dipeptidyl peptidase 4 [13]
  IC50: 64 nM
Mus musculus [6]
  Activity: 40.4%
Mus musculus [14]
  Activity: 31.4%

## O=C([C@H]1CC[C@@H](n2cc(-c3ccc(-c4ccccc4)cc3)nn2)C1)N1CCC(F)(F)C1
Dipeptidyl peptidase 4 [19]
  IC50: 660 nM

## N[C@@H](CC(=O)N1CCC[C@H]1CNC(=O)c1ccc(F)c(S(N)(=O)=O)c1)[C@H]1CCc2cc(F)c(F)cc21
Dipeptidyl peptidase 4 [2]
  IC50: 0.87 nM

## N#C[C@@H]1C[C@H](F)CN1C(=O)[C@@H](N)Cc1cc(Cl)c(Cl)cc1Cl
[20]
  IC50: > 40 µM
[21]
  half-life: 122 min
[8]
  glucose AUC: 795 mmol/L/min
[22]
  IC50: 97.7 µM
[23]
  bioavailability: 53.2%

## O=C([C@H]1CC[C@@H](n2cc(-c3ccccc3O)nn2)C1)N1CCC(F)(F)C1
Dipeptidyl peptidase 4 [19]
  IC50: 620 nM

## N[C@@H](CC(=O)N1CCC[C@H]1CNC(=O)c1cc(S(=O)(=O)N2CCOCC2)c(F)cc1F)[C@H]1CCc2cc(F)c(F)cc21
Dipeptidyl peptidase 4 [2]
  IC50: 0.87 nM

## N#C[C@@H]1CCCN1C(=O)[C@@H](N)CCC(=O)N1CCn2cc(C(F)(F)F)nc2C1.O=C(O)C(F)(F)F
Homo sapiens
  Ratio IC50: > 1000
[10]
  half-life: < 1440 min

## N#C[C@@H]1[C@@H]2CCC[C@@H]2CN1C(=O)[C@@H](N)Cc1cc(F)c(F)cc1F
[20]
  IC50: > 40 µM
[21]
  half-life: 164 min
[8]
  glucose AUC: 847 mmol/L/min
[22]; human
  IC5: 55.3 µM
[23]
  bioavailability: 22.8%

## N#C[C@@H]1CCCN1C(=O)CCCNC(=O)c1ccc(C(F)(F)F)cc1
[4]
  AUC: 17400 ng·h/mL

## CCOC(=O)c1ccc2cc(OCC(=O)N3CCCCC3)c(=O)oc2c1
Dipeptidyl peptidase 4 [12]
  inhibition: 1.3%

## O=C(CNc1cc2ccc3ccccc3c2oc1=O)Nc1ccc(Cl)cc1
Dipeptidyl peptidase 4 [12]
  inhibition: 26.7%

## CCN(CC)S(=O)(=O)c1cccc(C(=O)NC[C@@H]2CCCN2C(=O)C[C@H](N)[C@H]2CCc3cc(F)c(F)cc32)c1
Dipeptidyl peptidase 4 [2]
  IC50: 0.87 nM

## N#Cc1ccc(C2=NNc3nc(Br)nn3C2)cc1
Dipeptidyl peptidase 4 [17]
  inhibition: 48.3%

## CCN(CC)S(=O)(=O)c1cc(C(=O)NC[C@@H]2CCCN2C(=O)C[C@H](N)[C@H]2CCc3cc(F)c(F)cc32)ccc1F
Dipeptidyl peptidase 4 [2]
  IC50: 0.87 nM

## COc1ccc(CCNC(=S)N/C=C2\C(=O)Oc3ccccc3C2=O)cc1OC
Dipeptidyl peptidase 4 [17]
  inhibition: > 50%

## Cc1ccc(NC(=O)CNc2cc3ccc4ccccc4c3oc2=O)cc1
Dipeptidyl peptidase 4 [12]
  inhibition: 26.7%

## CCOC(=O)c1ccc2cc(OCC(=O)N3CCOCC3)c(=O)oc2c1
Dipeptidyl peptidase 4 [12]
  inhibition: 1.3%

## N[C@@H](CC(=O)N1CCC[C@H]1CNC(=O)c1cccc(S(N)(=O)=O)c1)[C@H]1CCc2cc(F)c(F)cc21
Dipeptidyl peptidase 4 [2]
  IC50: 0.87 nM

## CO/N=C1\CN(c2nc3c(cc2F)c(=O)c(C(=O)O)cn3C2CC2)CC1CN (centres undefined) [GEMIFLOXACIN]
Dipeptidyl peptidase 4 [18]
  IC50: 2700 nM

## CC#CCn1c(N2CCC[C@@H](N)C2)cc(=O)n(Cc2cn(C/C=C/C(=O)O)nn2)c1=O
Dipeptidyl peptidase 4 [13]
  IC50: 9.56 nM
Mus musculus [14]
  Activity: 28.1%

## Cc1nc2cc(-c3ccccc3)nn2c(-c2ccc(Cl)cc2Cl)c1CO
Dipeptidyl peptidase 8
  Ki: > 30 µM
Dipeptidyl peptidase 9
  Ki: > 30 µM

## NNC1=NC(N2C(=O)CSC2=O)=NC(NN)N1 (centres undefined)
Dipeptidyl peptidase 4 [16]
  IC5: 6.25 µM

## COC(=O)c1ccc2cc(OCC(=O)Nc3ccc(C)cc3)c(=O)oc2c1
Dipeptidyl peptidase 4 [12]
  inhibition: 1.3%

## N#C[C@@H]1CCCN1C(=O)[C@@H](N)CCC(=O)N1CCn2cnnc2C1
Homo sapiens
  Ratio IC50: > 1000
[10]
  half-life: < 1440 min

## N[C@@H](CC(=O)N1CCC[C@H]1CNC(=O)c1cc(S(=O)(=O)N2CCCCC2)c(F)cc1F)[C@H]1CCc2cc(F)c(F)cc21
Dipeptidyl peptidase 4 [2]
  IC50: 0.87 nM

## CS(=O)(=O)c1cccc(C(=O)NC[C@@H]2CCCN2C(=O)C[C@H](N)[C@H]2CCc3cc(F)c(F)cc32)c1
Mus musculus [11]
  Activity: 40%
Dipeptidyl peptidase 4 [2]
  IC50: 1.06 nM

## COC(=O)c1cn([C@@H]2CC[C@H](C(=O)N3CCC(F)(F)C3)C2)nn1
Dipeptidyl peptidase 4 [19]
  IC50: 720 nM

## Cc1nc2cc(-c3ccccc3Cl)nn2c(-c2ccc(Cl)cc2Cl)c1CO
Dipeptidyl peptidase 8
  Ki: > 30 µM
Dipeptidyl peptidase 9
  Ki: > 30 µM

## N[C@@H](CC(=O)N1CCC[C@H]1CNC(=O)c1cccnc1)[C@H]1CCc2cc(F)c(F)cc21
Dipeptidyl peptidase 4 [2]
  IC50: 0.87 nM
